Converted amounts (≈) assume the structure as drawn. “Also recorded” adds a separate entry of the source.
What was measured:
[1] = test system: Staphylococcus aureus (S. aureus), Strain #6538; experiment: Primary stage MIC measurement of antibiotic alone (2-fold dilutions, OD 600 nm growth curves); format: cell-based; details: for MIC: Staphylococcus aureus, read-out: MIC values for S. aureus found in the present study (in-house primary MIC)
Method: An isolated colony of S. aureus bacteria was picked from afresh streak plate (no more than 1 week old). The colony was transferred into 3-4 ml of TSB and incubated overnight in an orbital shaker at 35° C.-37° C.
The following day, the turbidity of the actively-growing broth culture was adjusted with Calcium-adjusted Mueller Hinton broth II (MHBII) to be equivalent to that of a 0.5 McFarland standard (1×10^8 CFU/ml). The broth culture was maintained under ambient conditions prior to use.
No more than 15 minutes prior to use, the culture was further diluted 20 fold in MHBII to obtain a final 5×10^6 CFU/ml stock suspension.
The method used in this stage was based on the classic Minimum Inhibitory Concentration (MIC) measurements, as described by the Clinical and Laboratory Standards Institute (CLSI) document M07-A9: “Method for Dilution Antimicrobial Susceptibility Test for Bacteria that Grow Aerobically”. While classic MIC measurements require visual inspection of plates for bacterial growth after 18 hours, growth was monitored in the present study according to optical density (OD) at 600 nm, using an ELISA reader (MultiSkan™ FC ELISA reader, Thermo Fisher Scientific, Massachusetts, USA), thereby obtaining bacterial growth curves for tested antibiotic solutions.
A 96-well assay plate layout (Corning Cat #3596) was prepared as follows:
Columns 1 and 3-12: 100 μl of MHBII alone was added to each well.
[…]: 200 μl of a solution of antibiotic in MHBII at the highest concentration to be tested was added to each well.
A series of 2-fold dilutions was performed, wherein 100 μl of solution of antibiotic was withdrawn from each well of column 2, transferred to the corresponding well of column 3, and mixed.
The dilution was then repeated by transfer from column 3 to column 4, and so on, until column 11, when the 100 μl of solution of antibiotic withdrawn from each well of column 11 was discarded.
The plate was then incubated at 37° C. with shaking in the ELISA reader and the optical density at 600 nm was read every 20 minutes for a total of 18 hours.
The average OD reading obtained for each antibiotic concentration was calculated and plotted against time to obtain a growth curve.
The MIC was determined as the first antibiotic concentration at which […] by the end of the 18-hour period.

[2] = test system: Staphylococcus aureus (S. aureus), Strain #6538; experiment: Secondary stage: antibiotic alone or blank ORC extracted in antibiotic, bacterial growth curves (ET50); format: cell-based; details: antibiotic solution with versus without ORC
Method: Blank ORC pads i.e. ORC pads which had not been impregnated with antibiotic (referred to herein as “blank ORC pads”), were subjected to extraction in a solution of antibiotic in PBS for three hours at ambient temperature.
Due to the acidity of ORC, which provides some antibiotic effect, the size of the pad used was small i.e. approximately 1×1.5 inch, weighing between 65-75 mg (70 mg on average) in order to prevent the ORC from affecting the final pH of the assay and therefore the growth of the bacteria.
15 ml tubes, each containing 3 ml of an antibiotic solution at a known concentration in sterile PBS, were prepared in duplicate. […]
The plate was incubated at 37° C. with shaking in the ELISA reader and the optical density at 600 nm was read every 20 minutes for a total of 18 hours.
The average and standard deviation for OD readings was calculated for each time point of the wells using Excel. […]
The average values were also entered into the GraphPad Prism program (GraphPad Software Inc., CA, USA) in order to calculate the Effective Time 50 (ET50) i.e. the time, in minutes, required for the antibiotic to induce a response halfway between the baseline and maximum, where the maximum is the bacterial growth in MHBII with PBS. This provides a quantifiable measure of the efficacy of the antibiotics tested and enables comparison of the various samples tested. […]

S. aureus [3] = details: published values; cited from earlier work
S. aureus [4] = experiment: Tertiary stage: antimicrobial activity of antibiotic-impregnated ORC extracts (ET50, MIC); format: cell-based, Staphylococcus aureus; details: for Result (ET50): ORC pad; for Antibiotic-impregnated ORC (tertiary) MIC: single antibiotic impregnated onto ORC pad
Method: The maximum OD is determined by bacterial growth in MHBII without the chemical.
Solutions comprising different concentrations of antibiotics to be tested were prepared in methanol.
Blank ORC pads of dimensions 1×1.5 inch, weighing between 65-75 mg (70 mg on average), in duplicate, were immersed in the antibiotic solutions and then dried using a rotary evaporator to provide “antibiotic-impregnated ORC pads”.
15 ml test tubes containing 3 ml of sterile PBS were prepared, and the antibiotic-impregnated ORC pads were immersed in the tubes and incubated for 3-5 hours at ambient temperature on a roller mixer (Stuart, Cat #SRT9D).
Each of the above extracts was filtered out using a sterile 0.8/0.2 μm syringe filter into a clean 15 ml tube. These extraction fluids are referred to herein as “antibiotic-impregnated ORC extracts”.
Briefly, ORC patches weighing on average 70 mg each were impregnated with the selected antibiotic. Antibiotic-impregnated ORC extracts were prepared by immersion and incubation in 3 ml of sterile PBS for 3 hours at ambient temperature. The ORC was then removed and any remaining ORC particles were filtered out using a […] syringe filter. This extraction fluid was then diluted 10-fold into Muller Hinton growth medium containing bacteria. Bacterial growth was monitored every 20 min for a total of 18 hours according to optical density (OD) at 600 nm, using an ELISA reader.
Since the study included many possible combinations of two antibiotics, each with their own different concentration range, a matrix of possible antibiotic concentrations was designed, and ORC pads prepared accordingly (see Table 10). Since all the possible combinations could not be fitted into one 96 well plate, a series of MIC experiments were carried out.

[5] = test system: Staphylococcus aureus (S. aureus), Strain #6538; experiment: Secondary stage: antibiotic alone or blank ORC extracted in antibiotic, bacterial growth curves (ET50); format: cell-based; details: presence of ORC pads (not impregnated), read-out: MIC upon addition of a small amount of ORC to the growth medium

Gentamycin [Gentamicin]
MIC values for S. aureus found in the present study (in-house primary MIC) ([1]; absence of ORC): 0.25 µg/mL | Effect of addition of ORC on the antibiotic activity [2]: decreased antibiotic activity; also recorded: impaired by ORC and MIC was increased | MIC values for S. aureus according to CLSI (S. aureus [3]): 0.12 to 1 µg/mL

CO[C@H]1/C=C/O[C@@]2(C)Oc3c(C)c(O)c4c(O)c(c(/C=N/N5CCN(C)CC5)c(O)c4c3C2=O)NC(=O)/C(C)=C\C=C\[C@H](C)[C@H](O)[C@@H](C)[C@@H](O)[C@@H](C)[C@H](OC(C)=O)[C@@H]1C [Rifampin, rifampin]
MIC as single antibiotic in the absence of ORC (first stage MIC results) [1]: 0.015 µg/mL | MIC ([1]; absence of ORC): 0.015 µg/mL (≈ 0.0182 µM) | Effect of addition of ORC on the antibiotic activity [2]: ORC interferes with the antibiotic activity of rifampin; also recorded: impaired by ORC and MIC was increased | Result (ET50) (S. aureus [4]; 0.00 μg Minocycline + 31.41 μg Rifampin per gr ORC): 406.8 min | Result (ET50) (S. aureus [4]; 0.00 μg Minocycline + 62.82 μg Rifampin per gr ORC): 442.3 min | Result (ET50) (S. aureus [4]; 0.00 μg Minocycline + 125.64 μg Rifampin per gr ORC): 450.4 min | Result (ET50) (S. aureus [4]; 0.00 μg Minocycline + 157.05 μg Rifampin per gr ORC): 418.1 min | Rifampin concentration sufficient for growth inhibition of S. aureus in combination (S. aureus [4]; impregnated onto ORC together with 1.26 ng/ml minocycline): 366.5 ng/mL | Antibiotic-impregnated ORC (tertiary) MIC (S. aureus [4]): 0.733 µg/mL | Change of antimicrobial activity when impregnated onto the ORC pad (S. aureus [4]; versus first stage MIC): activity was impaired | MIC values for S. aureus according to CLSI (S. aureus [3]): 0.004 to 0.015 µg/mL

CN(C)c1ccc(O)c2c1C[C@H]1C[C@H]3[C@H](N(C)C)C(O)=C(C(N)=O)C(=O)[C@@]3(O)C(O)=C1C2=O [Minocycline, minocycline]
MIC as single antibiotic in the absence of ORC (first stage MIC results) [1]: 0.25 µg/mL | MIC ([1]; absence of ORC): 0.25 µg/mL (≈ 0.546 µM) | Result (ET50) (S. aureus [4]; 0.54 μg Minocycline + 0.00 μg Clindamycin per gr ORC): 637.6 min | Result (ET50) (S. aureus [4]; 0.54 μg Minocycline + 0.00 μg Rifampin per gr ORC): 585.4 min | Result (ET50) (S. aureus [4]; 1.08 μg Minocycline + 0.00 μg Clindamycin per gr ORC): 1072 min | Result (ET50) (S. aureus [4]; 1.08 μg Minocycline + 0.00 μg Rifampin per gr ORC): 799.9 min | Result (ET50) (S. aureus [4]; 2.16 μg Minocycline + 0.00 μg Clindamycin per gr ORC): >2000 min | Result (ET50) (S. aureus [4]; 2.16 μg Minocycline + 0.00 μg Rifampin per gr ORC): >2000 min | Result (ET50) (S. aureus [4]; 2.70 μg Minocycline + 0.00 μg Clindamycin per gr ORC): >2000 min | Result (ET50) (S. aureus [4]; 2.70 μg Minocycline + 0.00 μg Rifampin per gr ORC): >2000 min | MIC (S. aureus [4]; Staphylococcus aureus, single antibiotic impregnated onto ORC, read-out: MIC of minocycline together with ORC, ORC impregnated with minocycline): 0.0126 µg/mL | Minocycline concentration sufficient for growth inhibition of S. aureus in combination (S. aureus [4]; impregnated onto ORC together with rifampin or clindamycin): 1.26 ng/mL | Antibiotic-impregnated ORC (tertiary) MIC (S. aureus [4]): 0.0126 µg/mL | Fold reduction of the MIC when impregnated onto ORC in combination with an additional antibiotic (S. aureus [4]; versus single antibiotic in the absence of ORC (first stage MIC)): 200 | MIC [5]: 0.05 µg/mL

CCC[C@@H]1C[C@@H](C(=O)N[C@@H]([C@H]2O[C@H](SC)[C@H](O)[C@@H](O)[C@H]2O)[C@H](C)Cl)N(C)C1 [Clindamycin, clindamycin]
MIC as single antibiotic in the absence of ORC (first stage MIC results) [1]: 0.062 µg/mL | MIC ([1]; absence of ORC): 0.062 µg/mL (≈ 0.146 µM) | Antibiotic-impregnated ORC (tertiary) MIC (S. aureus [4]): 0.015 µg/mL

— patent publication US11000635B2, “Antimicrobial compositions comprising minocycline and oxidized cellulose” (priority 2017, dated 2021)
